Results published in patent US10500169B2, “Supression of IgE production by compounds derived from traditional chinese medicine” (Sean N. Parker Foundation, priority 2014, dated 2019).

Tests used:
human PBMCs = experiment: Cell viability of human PBMC, trypan blue exclusion; type: cell-based; settings: any dose tested
Protocol: (§1) Cell viability was evaluated using a trypan blue exclusion as previously described. Briefly, a 10 μl of cells suspension from each culture was mixed with equal volume of trypan blue dye. The mixture was loaded into a hemocytometer and cells were counted under a microscope. The percentage of viable cells was calculated as follows: Viable cells (%)=(total number of viable cells)/(total number of cells)×100.

phosphorylated-IκBα = experiment: In-Cell Western of phosphorylated IκBα in PBMCs; type: cell-based, human; settings: 10 μg/mL, vs non-treated stimulated cells
Protocol: PBMCs (1×10^5 cells/mL) were cultured with or without DMF-C1 (10 μg/mL) and stimulated with or without rIL-4 (100 ng/mL) and anti-CD40 (1 μg/mL) mAb for 10 days. In-Cell Western Assay (Li-Cor, Lincoln, Nebr.) was performed following the manufacturer's instructions. In brief, cells were incubated with antibodies against phosphorylated-IκBα (p-IκBα; Cell Signaling) and β-actin (Santa Cruz Biotechnology) overnight. After washing with 0.1% Tween PBS buffer, secondary antibodies IRDye800CW donkey anti-goat and IRDye680 donkey anti-rabbit (LI-Cor) were added and incubated at room temperature for 1 hour in the dark. Plates were scanned and analyzed with Odyssey CLx Infrared Imaging System.

U266 cells [1] = experiment: Cell viability of U266 cells, trypan blue exclusion; type: cell-based, human; settings: at the concentrations tested
Protocol: as §1

U266 cells [2] = experiment: IgE production by U266 myeloma cells, ELISA of supernatants; type: cell-based, human
Protocol: The IgE producing human U266 myeloma cell line (American Type Culture Collection; Rockville, Md.) has been used for screening pharmaceutical agents for IgE inhibitory effects, and thus this cell line was used to test the potential IgE inhibitory effects of herb extracts and purified compounds. Cells were cultured at 37° C. under 5% CO2 in complete media containing RPMI 1640 medium supplemented, 10% FBS, 1 mM sodium pyruvate, 1×10^-5 M β-ME and 0.5% penicillin-streptomycin. Cells were grown at an initial concentration of 2×10^5 cells/mL. FAHF-2 and B-FAHF-2, individual herb extracts and isolated compounds at different concentrations were added at day 0. Supernatants were harvested after 6 days culture, and IgE levels were determined by using an ELISA Kit (Mabtech Inc, OH). In each experiment, we run duplicate ELISA. In vitro experiments were repeated at least 3 times.
Human U266 myeloma cells (American Type Culture Collection; Rockville, Md.) were cultured in complete medium (RPMI 1640 medium supplemented, 10% FBS, 1 mM sodium pyruvate, 1×10^−5 M β-ME and 0.5% penicillin-streptomycin) at 37° C. under 5% CO2. Cells were grown at an initial concentration of 2×10^5 cells/mL with purpurin and alizarin from Rubia cordifolia L. at different concentrations (0.31, 0.62, 1.25, 2.5, 5 μg/mL), and with arctiin and arctigenin from Arctium lappa L. at different concentrations ([…]) for 6 days. The supernatants were harvested on day 6 for total IgE analysis using ELISA.

STAT3 = experiment: RT-PCR gene expression in stimulated PBMCs: STAT3; type: cell-based, human; settings: 10 μg/mL
Protocol: (§2) Quantitative real time PCR was used to detect the epsilon germline transcription. Human PBMC cells (1.5×10^6 cells/mL) were co-incubated with DMF-C1 compound (10 μg/mL) at 37° C. under 5% CO2 for 4 days. Cells were then harvested and total RNA was isolated using Trizol reagent (Gibco BRL, Rockville, Md.) following the manufacturer's instructions. The RNA concentrations were then quantified by triplicate optical density (OD) readings (Bio-Rad SmartSpect 3000; Bio-Rad, Hercules, Calif.). The reverse transcription was performed to get the cDNA using ImProm-II™ Reverse Transcriptase (Promega Corporation, Madison, Wis.) as described by the manufacturer's instructions. The RT-PCR amplification was performed using Maxima™ SYBR Green qPCR Master Mix (2×) kit (Fisher Scientific, Pittsburgh, Pa.) with epsilon germline primers or GAPDH primers. The primer sequences were listed as εGLT forward: 5′-[…]-3′; εGLT reverse: 5′-[…]-3′; GAPDH-forward: 5′-[…]-3′; GAPDH-reverse: 5′-[…]-3′; STAT3-forward: 5′-[…]-3′; STAT3-reverse: 5′-[…]-3′; T-bet-forward: 5′-[…]-3′; T-bet-reverse: 5′-[…]-3′; IFN-γ-forward: 5′-[…]-3′; IFN-γ-reverse: 5′-[…]-3′; IL-10-forward: 5′-[…]-3′; IL-10-reverse: 5′-[…]-3′. IL-5-forward. 5′-[…] TGCA-3′; IL-5-reverse: 5′-[…]-3′. All primers were synthesized by Sigma-Aldrich Corporation (St. Louis, Mo.).

B cells in Human PBMCs = experiment: Apoptosis by flow cytometry, annexin V staining of CD19 B cells in PBMCs; type: cell-based; settings: 10 μg/ml, 2 days incubation
εGLT = experiment: RT-PCR of epsilon germline transcripts in PBMCs; type: cell-based, human; settings: 10 μg/mL, 4 days, vs untreated cultures
Protocol: as §2

IFN-γ = experiment: RT-PCR gene expression in stimulated PBMCs: IFN-γ; type: cell-based, human; settings: 10 μg/mL
Protocol: as §2

`COc1ccc2cc3[n+](cc2c1OC)CCc1cc2c(cc1-3)OCO2` [berberine] was tested, and the “cell viability of human PBMC” value (human PBMCs) was “not compromised”, the “phosphorylated IκBα levels” value (phosphorylated-IκBα) was “significantly suppressed” and the “cell viability of U266 cells” value (U266 cells [1]) was “no toxicity”. For the same molecule, the inhibition at 20 µg/mL (U266 cells [2]; Homo sapiens, U-266, 144 h, 20 μg/mL, 6 days) was 94.6%, the IC50 (U266 cells [2]; Homo sapiens, U-266, 144 h, 6 days culture, read-out: IC50 of inhibition of IgE production by U266 cells) was 3.95 mg/L and the “effect on IgE production by U266 cells (in words)” value (U266 cells [2]; different concentrations, 6 days) was “inhibited IgE production in a dose-dependent manner”. The “mRNA expression of STAT-3” value (STAT3) was “significantly increased”, the “annexin V stained B cells” value (B cells in Human PBMCs) was “about 16%” and the “relative mRNA expression of εGLT” value (εGLT) was “significantly inhibited”. The “mRNA level of IFN-γ” value (IFN-γ) was “trend of increase”.
